How the values were obtained:
[1] = system: orchidectomized male Sprague-Dawley rat; test: In vivo assay, orchidectomized mature male rats (14 days oral); conditions: for exposure (AUC24) at which muscle mass is stimulated above sham equivalent levels: ORX male rats, 14 days PO
Description: The orchidectomized male Sprague-Dawley rat model was used to assess the effects of Compound 102 on various reproductive, gonadotropin and musculoskeletal endpoints, including sex accessory organs, bone, serum gonadotropin levels and striated muscle in mature male rats.
In this assay, two-month old rats were acclimated in a vivarium for one week. After this acclimation period, rats were surgically orchidectomized under isoflurane anesthesia and left untreated for 14 days. After 14 days, animals were sorted into groups such that no statistically significant differences in mean body weights were observed. Rats began receiving treatment 14 days after the day of surgery. Sham-operated and orchidectomized rats, treated with vehicle, served as controls. The different test groups were treated with various doses of Compound 102 (0.03 to 100 mg/kg/day per os (by mouth)). Dosages included 0.03, 0.1, 0.3, 1, 3, 10, 30 and 100 mg/kg/day. Ostarine, a non-steroidal androgenic drug (Evans et al., J Clin Oncology 25: 9119 (2007)) was dosed at dosages similar to other test groups as a comparison. After the 14th dose, venous blood was collected at 0, 1, 2, 4 and 6 hours after dosing. The blood samples were collected in EDTA-containing tubes (Becton Dickinson, Franklin Lakes, N.J.). Approximately 24 hours after the last dose, animals were euthanized and seminal vesicle weights, ventral prostate weights, levator ani weights, preputial gland weights and blood samples were collected on necropsy.
For serum, whole blood (5 mL) was collected in vacutainer tubes (Becton Dickinson) and the blood samples were allowed to clot at room temperature for about 2 hours. Serum was separated by centrifugation at 2500 rpm for 30 minutes, collected and frozen (−80° C.). For plasma, whole blood was collected in EDTA-containing tubes by centrifugation at 1000×g for 5 minutes at 4° C. Plasma samples were stored at −20° C.
For the preparation of all dose formulations, the appropriate amount of test compound (Compound 102) for the highest concentration to be administered was weighed. The compound was suspended in the formulation vehicle (5% Tween®-80 polysorbate, 90% PEG-400 polyethylene glycol and 5% PVP-K30 polyvinylpyrrolidone). The suspension was sonicated for 15 minutes, and the resulting formulation was diluted using vehicle to obtain the proper volume and concentrations of the dosing materials to achieve a dosing volume of 1 mL/kg body weight.
Serum samples were assayed with a double anti-serum procedure using reagents from the National Institute of Diabetes and Digestive and Kidney Diseases (NIDDK). Sample compounds and standards (NIDDK-rLH-RP-3) in a total volume of 200 μL were incubated at room temperature for 2 to 3 days with 100 μL primary anti-serum (rat LH antiserum: rabbit NIDDK-anti-rLH-S-11) diluted 1:100,000. Then, 100 μL of ^125I-labeled LH (Covance Laboratories Madison, Wis.) diluted 200,000-300,000 cpm/mL was added to the tubes and incubation continued for an additional 24 hour period.
Bound hormone was separated from free hormone by precipitation with a specific goat ant-rabbit serum (GARS from Antibodies, Inc., Davis, Calif.). An aliquot of 50 μL of 4% normal rabbit serum was added to each incubation tube, after which an additional 50 μL of a 1:10 GARS solution was added. The tubes were vortexed and incubated overnight at 4° C.
The assay was terminated by centrifugation at 2,500 rpm for 30 minutes in a Sorvall RC 3C Plus centrifuge (rotor #H2000B) at 4° C. The supernatants were decanted and discarded and the pellets were counted in a 10-channel gamma-counter.
Serum osteocalcin, a vitamin K-dependent, calcium binding protein, is a biochemical marker that reflects bone formation activity (Gundberg, J Clin Ligand Assay 21: 128-138 (1998)). Serum osteocalcin was quantitated using an IRMA kit from Immutopics, Inc. (#50-1500, San Clemente, Calif.). […] The test uses two different antibodies to measure the serum osteocalcin. […]

[2] = molecular target: T1, baculovirus expressed hAR protein (Homo sapiens, UniProt P10275); test: Receptor binding assay ([3H]-dihydrotestosterone displacement)
T1 construct: made in house; host or cells: Sf-21 insect cells (baculovirus)
T1 sequence (P10275 1-920): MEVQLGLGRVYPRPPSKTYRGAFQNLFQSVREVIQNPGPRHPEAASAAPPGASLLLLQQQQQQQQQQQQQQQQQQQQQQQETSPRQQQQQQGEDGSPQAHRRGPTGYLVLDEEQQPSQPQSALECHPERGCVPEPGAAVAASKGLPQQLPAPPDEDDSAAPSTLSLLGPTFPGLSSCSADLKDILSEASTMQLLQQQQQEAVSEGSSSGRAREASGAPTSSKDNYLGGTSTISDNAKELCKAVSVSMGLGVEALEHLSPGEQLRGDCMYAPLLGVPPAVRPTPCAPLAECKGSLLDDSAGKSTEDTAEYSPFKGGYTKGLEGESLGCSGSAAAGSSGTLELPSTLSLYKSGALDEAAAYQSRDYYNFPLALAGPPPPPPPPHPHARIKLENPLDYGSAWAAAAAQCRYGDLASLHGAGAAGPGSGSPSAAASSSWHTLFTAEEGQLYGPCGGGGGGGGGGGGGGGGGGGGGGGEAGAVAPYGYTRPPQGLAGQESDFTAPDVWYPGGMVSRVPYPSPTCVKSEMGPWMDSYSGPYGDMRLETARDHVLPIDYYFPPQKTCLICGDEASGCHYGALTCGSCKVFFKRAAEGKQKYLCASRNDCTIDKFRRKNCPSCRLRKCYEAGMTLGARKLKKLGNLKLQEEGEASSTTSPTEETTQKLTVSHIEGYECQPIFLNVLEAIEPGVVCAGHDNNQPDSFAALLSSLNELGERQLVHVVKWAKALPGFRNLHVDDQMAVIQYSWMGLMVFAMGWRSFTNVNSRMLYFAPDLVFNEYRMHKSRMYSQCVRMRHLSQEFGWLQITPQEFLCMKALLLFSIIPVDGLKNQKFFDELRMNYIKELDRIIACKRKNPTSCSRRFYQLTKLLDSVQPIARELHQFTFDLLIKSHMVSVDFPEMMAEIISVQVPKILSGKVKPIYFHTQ

| SMILES | preputial gland weight ([1]; 30 mg/kg/day, statistically significant) | ventral prostate or seminal vesicles, % of sham levels ([1]; 100 mg/kg/day PO (highest dose)) | exposure (AUC24) at which muscle mass is stimulated above sham equivalent levels [1] | preputial gland weight ([1]; all doses less than 10 mg/kg/day PO) | ventral prostate, % of sham equivalent levels ([1]; exposures of 1 μg·/mL or greater) | Ki [2] [nM] | restoration of ventral prostate to sham equivalents ([1]; any dose) |
| --- | --- | --- | --- | --- | --- | --- | --- |
| N#Cc1ccc(N2CCC[C@@H]2[C@@H](O)C(F)(F)F)cc1C(F)(F)F [Compound 102, R,R-4-(2-(1-Hydroxyl-2,2,2-trifluoroethyl)-pyrrolidinyl)-2-trifluoromethyl-benzonitrile] | increased preputial gland weight above the sham level | approximately 50% | ≥ 1 µg·h/mL | remained below vehicle equivalent levels | less than 50% | 0.9 |  |
| O=[N+]([O-])c1ccc(N2CCC[C@@H]2[C@@H](O)C(F)(F)F)cc1C(F)(F)F [LG0893410, R,R-2,2,2-trifluoro-1-[1-(4-nitro-3-trifluoromethyl-phenyl)-pyrrolidin-2-yl]-ethanol] |  |  |  |  |  | 2.5 |  |
| O=[N+]([O-])c1ccc(N2CCC[C@@H]2[C@H](O)C(F)(F)F)cc1C(F)(F)F [LG0893411, S, R-2,2,2-trifluoro-1-[1-(4-nitro-3-trifluoromethyl-phenyl)-pyrrolidin-2-yl]-ethanol] |  |  |  |  |  | 5.7 |  |
| C[C@](O)(COc1ccc(C#N)cc1)C(=O)Nc1ccc(C#N)c(C(F)(F)F)c1 [ostarine] |  |  | greater than 10 μg·/mL |  |  |  | did not restore ventral prostate to sham equivalents at any dose |

— patent US11358931B2, “Selective androgen receptor modulators (SARMs) and uses thereof” (priority 2007, dated 2022)
